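Each compound was tested at five concentrations against cells in 96-well plates for 48 hours. GI50 marks 50% less growth.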 Activity calls are given as the source filed them. No stated cut-off is given here; in the data, active = GI50 up to about 1.1 µM and inactive = higher.
Tests used:
Test in all cases: NCI-60 cell line screen, 48 h
SF-539 = system: SF-539
SK-OV-3 = system: SK-OV-3
K562 = system: K562
MDA-MB-231 = system: MDA-MB-231
HOP-62 = system: HOP-62
MDA-N = system: MDA-N
TK-10 = system: TK-10
SN12C = system: SN12C
RPMI-8226 = system: RPMI-8226
UACC-257 = system: UACC-257
IGROV-1 = system: IGROV-1
Hs-578T = system: Hs-578T
HL-60 = system: HL-60
PC-3 = system: PC-3
SNB-19 = system: SNB-19
BT-549 = system: BT-549
A498 = system: A498
NCI-H23 = system: NCI-H23
SR = system: SR
HCC 2998 = system: HCC 2998

| Structure (SMILES) | GI50 (SF-539) | GI50 (SK-OV-3) | GI50 (K562) | GI50 (MDA-MB-231) | GI50 (HOP-62) | GI50 (MDA-N) | GI50 (TK-10) | GI50 (SN12C) | GI50 (RPMI-8226) | GI50 (UACC-257) | GI50 (IGROV-1) | GI50 (Hs-578T) | GI50 (HL-60) | GI50 (PC-3) | GI50 (SNB-19) | GI50 (BT-549) | GI50 (A498) | GI50 (NCI-H23) | GI50 (SR) | GI50 (HCC 2998) |
| --- | --- | --- | --- | --- | --- | --- | --- | --- | --- | --- | --- | --- | --- | --- | --- | --- | --- | --- | --- | --- |
| COC(=O)Cc1c(C2=Nc3ccccc3C2(O)CC(=O)OC)[nH]c2ccccc12 (stereo unspecified) | 29.6 µM (inactive) | > 100 µM (inactive) | 27 µM (inactive) | 45.2 µM (inactive) | > 100 µM (inactive) | > 100 µM (inactive) | > 100 µM (inactive) | 68.5 µM (inactive) | 25.4 µM (inactive) | > 100 µM (inactive) | 1.09 µM (active) | 24.2 µM (inactive) | 22 µM (inactive) | 30 µM (inactive) | 55.8 µM (inactive) | > 100 µM (inactive) | > 100 µM (inactive) | > 100 µM (inactive) | – | – |
| CC(=O)CC1(O)C(=O)c2c(Br)sc(Br)c2C1=O | 23.6 µM (inactive) | 36.8 µM (inactive) | 32.8 µM (inactive) | – | 29 µM (inactive) | 22.3 µM (inactive) | 25.9 µM (inactive) | 19.4 µM (inactive) | 31.3 µM (inactive) | 19.6 µM (inactive) | 17 µM (inactive) | 31.3 µM (inactive) | 20.6 µM (inactive) | 20.6 µM (inactive) | 55.5 µM (inactive) | 19 µM (inactive) | > 100 µM (inactive) | 19.5 µM (inactive) | 21.1 µM (inactive) | 17.8 µM (inactive) |
| O=c1c(-c2ccccc2)c(SCCO)n(-c2ccccc2)c(=S)n1-c1ccccc1 | – | > 100 µM (inactive) | > 100 µM (inactive) | – | > 100 µM (inactive) | > 100 µM (inactive) | > 100 µM (inactive) | > 100 µM (inactive) | > 100 µM (inactive) | > 100 µM (inactive) | > 100 µM (inactive) | 99.5 µM (inactive) | > 100 µM (inactive) | > 100 µM (inactive) | > 100 µM (inactive) | > 100 µM (inactive) | – | > 100 µM (inactive) | > 100 µM (inactive) | – |
| CC(C)(C)OC(=O)NNC(=O)C1Cc2ccccc2OC1=O (stereo unspecified) | > 100 µM (inactive) | > 100 µM (inactive) | > 100 µM (inactive) | – | > 100 µM (inactive) | > 100 µM (inactive) | > 100 µM (inactive) | > 100 µM (inactive) | > 100 µM (inactive) | > 100 µM (inactive) | > 100 µM (inactive) | > 100 µM (inactive) | – | > 100 µM (inactive) | > 100 µM (inactive) | > 100 µM (inactive) | – | > 100 µM (inactive) | > 100 µM (inactive) | > 100 µM (inactive) |
| CC(=O)C(C)CCOC1(C)OCCC1C (stereo unspecified) | > 100 µM (inactive) | > 100 µM (inactive) | > 100 µM (inactive) | > 100 µM (inactive) | > 100 µM (inactive) | – | > 100 µM (inactive) | > 100 µM (inactive) | > 100 µM (inactive) | > 100 µM (inactive) | > 100 µM (inactive) | > 100 µM (inactive) | > 100 µM (inactive) | > 100 µM (inactive) | > 100 µM (inactive) | > 100 µM (inactive) | > 100 µM (inactive) | > 100 µM (inactive) | > 100 µM (inactive) | > 100 µM (inactive) |
| O=C(NCCNCCCNC(=O)c1cc(-c2ccccc2)nc2ccccc12)c1cccc(O)c1O | 2.48 µM (inactive) | 6.11 µM (inactive) | 2 µM (inactive) | 4.23 µM (inactive) | 1.05 µM (active) | – | 1.63 µM (inactive) | 1.95 µM (inactive) | 2.85 µM (inactive) | 4.01 µM (inactive) | 7.82 µM (inactive) | 13.8 µM (inactive) | 3.21 µM (inactive) | 5.94 µM (inactive) | 2.1 µM (inactive) | 2.56 µM (inactive) | 15.8 µM (inactive) | 6.14 µM (inactive) | – | 3.73 µM (inactive) |
| COc1ccc(NC(C)=O)cc1N1C(=O)/C(=C\c2cccc(Oc3ccccc3)c2)S(=O)(=O)C1c1ccccc1 (stereo unspecified) | 20.7 µM (inactive) | > 100 µM (inactive) | 22.8 µM (inactive) | 49 µM (inactive) | 71.6 µM (inactive) | 21 µM (inactive) | > 100 µM (inactive) | 24.2 µM (inactive) | 22.3 µM (inactive) | 49.3 µM (inactive) | 34.5 µM (inactive) | – | 20.4 µM (inactive) | 36.6 µM (inactive) | 46.1 µM (inactive) | 53.3 µM (inactive) | > 100 µM (inactive) | 60.3 µM (inactive) | 4.21 µM (inactive) | > 100 µM (inactive) |

— ChEMBL document CHEMBL1201862, “PubChem BioAssay data set” (2004)
